Measured values as given in patent US20100041621A1, “METHODS AND COMPOSITIONS FOR IMPROVING COGNITIVE PERFORMANCE” (priority 2008, published 2010).

Columns and labels:
[1] = tested on: parieto-occipital cortex (POC); assay: 31P MRSI (3D-CSI, 4 Tesla) of phosphorus metabolites in the parieto-occipital cortex (comparison region) after six weeks of oral citicoline; assay type: in vivo, human
From the text: (§1) ^31P data were collected using a three-dimensional chemical shift imaging (3D-CSI) technique at 4 Tesla in healthy middle-aged individuals. The use of 3D-CSI at high field has several advantages over previous methods: 1) increased spectral dispersion, which allows for increased precision of metabolite quantification; 2) post-processing grid shifting that allows for 3D placement of voxels of interest; and 3) the ability to co-register voxel placement between baseline and post-treatment follow-up. High-energy metabolite peaks quantified in the present study include phosphocreatine (PCr), β-nucleoside triphosphate (NTP, ATP in brain), and inorganic phosphate (Pi). Phospholipid membrane metabolite peaks quantified include anabolites, phosphomonoesters (PME), including phosphoethanolamine (PE) and phosphocholine (PC), and catabolites, phosphodiesters (PDE), including glycerophosphoethanolamine (GPE) and glycerolphosphocholine (GPC). A region of interest approach was used to examine phosphorus metabolite levels in the anterior cingulate cortex (ACC), given the notable age-related decline in frontal brain metabolism and impairment of frontally-mediated cognitive functions. A comparison region placed in the parieto-occipital cortex (POC) was also evaluated. It was hypothesized that oral supplementation with citicoline would improve frontal bioenergetic metabolism via elevations in availability of high-energy phosphates, as well as alteration of membrane phospholipid turnover by providing additional membrane precursors.
(§2) Subjects included sixteen neurologically and psychiatrically healthy adults (mean age=47.3±5.4 years; 8 females, 8 males). Trained research technicians administered a structured clinical psychiatric interview using the Structured Clinical Interview for DSM-IV (SCID). All subjects were free of Axis I diagnoses, neurological illness, severe medical problems, and psychoactive substance use.
(§3) Subjects were randomly assigned to receive a six-week supply of either 500 mg (4 males and 4 females) or 2000 mg (4 males and 4 females) of Cognizin® Citicoline (Kyowa Hakko Kogyo Co., Ltd., JAPAN). Subjects were instructed to take one capsule every day (500 mg group) or four capsules every day in a single dose (2000 mg group) for six weeks. […] Magnetic resonance spectroscopy (MRS) was completed on all subjects in two imaging sessions: one prior to beginning treatment (baseline) and one after completing six weeks of treatment.
(§4) All proton imaging was performed using the proton channel of the dual tuned open face proton-phosphorus TEM whole-head coil from Bioengineering Inc. (Minneapolis, Minn.) operating at a nominal frequency of 170.3 MHz. A 2D gradient-recalled echo imaging sequence (12 seconds duration) was used to acquire a single image in all three spatial dimensions (sagittal, coronal, axial) to quickly determine the patient's position and angle. High-contrast, T1-weighted sagittal, coronal images as well as T1 and T2-weighted transverse images of the entire brain were acquired using a three-dimensional, magnetization-prepared FLASH imaging sequence (3D-MP FLASH), allowing for clear segmentation between grey-matter, white-matter, and CSF, as well as clearly delineating between the different anatomical regions of interest. This approach was used to optimize […] voxel positioning, and volumetric correction in the regions of interest.
(§5) Phosphorus MRSI was performed using the phosphorus channel of the dual tuned proton-phosphorus TEM whole-head coil from Bioengineering Inc. (Minneapolis, Minn.) operating at 68.9 MHz. Phosphorus MRSI data were recorded using a three-dimensional chemical shift imaging (3D-CSI) sequence (Garraux, Neuroimage 10:149-162, 1999). […]

[2] = tested on: axial brain slice through the frontal and occipital cortices; settings: elderly subjects (69.4±5.6 years), 6 weeks of treatment, 1.5 Tesla; cited from earlier work
[3] = tested on: anterior cingulate cortex (ACC); assay: 31P MRSI (3D-CSI, 4 Tesla) of phosphorus metabolites in the anterior cingulate cortex after six weeks of oral citicoline; assay type: in vivo, human; settings: 6 weeks, doses pooled, mean ± SD
From the text: as §1, §2, §3, §4, §5

[4] = POC, six weeks, at either dose (500 or 2000 mg)

For C[N+](C)(C)CCOP(=O)(O)OP(=O)([O-])OC[C@H]1O[C@@H](n2ccc(N)nc2=O)[C@H](O)[C@@H]1O [citicoline, CDP-choline], which “change in phospholipid membrane metabolites” value ([1]; POC region of interest, baseline vs six weeks) is on record?
Its value is “No significant changes”.

And the “PC, metabolite ratio relative to total 31P signal” value ([1]; POC, 6 weeks, doses pooled, mean ± SD, baseline .023 ± .009, ns)?
The value was “.026 ± .012”.

And the “GPE, metabolite ratio relative to total 31P signal” value ([1]; POC, 6 weeks, doses pooled, mean ± SD, baseline .034 ± .011, ns)?
Its value is “.032 ± .014”.

What about the “GPC, metabolite ratio relative to total 31P signal” value ([1]; POC, 6 weeks, doses pooled, mean ± SD, baseline .047 ± .017, ns) of the same compound?
Its value is “.047 ± .010”.

What about the “β-NTP, metabolite ratio relative to total 31P signal” value ([1]; POC, 6 weeks, doses pooled, mean ± SD, baseline .063 ± .009, ns) of the same compound?
Its value is “.066 ± .010”.

What about the “PE, metabolite ratio relative to total 31P signal” value ([1]; POC, 6 weeks, doses pooled, mean ± SD, baseline .065 ± .009, ns) of the same compound?
The value was “.058 ± .010”.

What about the “Pi, metabolite ratio relative to total 31P signal” value ([1]; POC, 6 weeks, doses pooled, mean ± SD, baseline .072 ± .010, ns) of the same compound?
The value was “.075 ± .013”.

What about the “PME, metabolite ratio relative to total 31P signal” value ([1]; POC, 6 weeks, doses pooled, mean ± SD, baseline .088 ± .015, ns) of the same compound?
Its value is “.084 ± .011”.

What about the “change in PCr/Pi ratio” value [1, 4] of the same compound?
Its value is “No changes”.

What about the “change in Pi” value [1, 4] of the same compound?
The value was “No changes”.

What about the “change in phosphodiesters (PDE, phospholipid membrane catabolites)” value [2] of the same compound?
The value was “significant increase”.

What about the “PC, metabolite ratio relative to total 31P signal” value ([3]; baseline .026 ± .010, p .02) of the same compound?
Its value is “.019 ± .008”.

And the “GPE, metabolite ratio relative to total 31P signal” value ([3]; baseline .039 ± .010, p .01)?
The value was “.030 ± .009”.

And the “PE, metabolite ratio relative to total 31P signal” value ([3]; baseline .043 ± .015, p .04)?
Its value is “.054 ± .008”.

What about the “GPC, metabolite ratio relative to total 31P signal” value ([3]; baseline .051 ± .015, ns) of the same compound?
Its value is “.047 ± .016”.

What about the “β-NTP, metabolite ratio relative to total 31P signal” value ([3]; baseline .066 ± .012, p .05) of the same compound?
The value was “.075 ± .014”.

And the “PME, metabolite ratio relative to total 31P signal” value ([3]; baseline .069 ± .016, ns)?
Its value is “.073 ± .012”.

What about the “Pi, metabolite ratio relative to total 31P signal” value ([3]; baseline .073 ± .012, p .15) of the same compound?
The value was “.065 ± .022”.
